Source: patent publication US20240174690A1, “ANNULATED 2-AMINO-3-CYANO THIOPHENES AND DERIVATIVES FOR THE TREATMENT OF CANCER” (BOEHRINGER INGELHEIM INTERNATIONAL GMBH, priority 2021, published 2024)
Like-named read-outs stand apart in the source and are kept apart here.

Experiments:
[1] = tested on: GP2D cells; assay: GP2D proliferation assay (120 h) (colorectal cancer, G12D); assay type: cell-based
How it was run: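 500 cells/well in DMEM + GlutaMAX + 10% FCS, exposed to a logarithmic compound dose series (DMSO-normalized) for 120 h. Viability read by CellTiter-Glo luminescence as percent of DMSO control, with an untreated T0 read at dosing; IC50 from four-parameter non-linear regression.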

[2] = tested on: MKN1 cells; assay: MKN1 CTG proliferation assay (120 h) (gastric cancer, wt amplified); assay type: cell-based
How it was run: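 MKN1 gastric cancer cells (200–500 per well, RPMI + 10% FCS) given a logarithmic compound dose series and incubated 120 h. Viability by CellTiter-Glo luminescence as percent of DMSO controls. IC50 by four-parameter non-linear regression.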

[3] = target: KRAS (WT)::SOS1 (Homo sapiens (Human), UniProt P01116, C118S); assay: KRAS::SOS1 AlphaScreen binding assay, KRAS WT
KRAS (WT)::SOS1, sequence (P01116 other isoform, or with tags, fused parts or gaps C118S): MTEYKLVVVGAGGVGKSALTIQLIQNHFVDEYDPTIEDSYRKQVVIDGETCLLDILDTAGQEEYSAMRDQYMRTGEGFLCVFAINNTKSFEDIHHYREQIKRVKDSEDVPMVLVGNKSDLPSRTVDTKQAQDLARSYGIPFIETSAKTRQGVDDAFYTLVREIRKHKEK
How it was run: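 AlphaScreen measurement of compound disruption of biotinylated, GDP-loaded KRAS 1-169 (10 nM; G12C 7.5 nM) binding to GST-SOS1 564-1049 (5 nM with G12D/G12C, 10 nM otherwise), with 10 μM GDP in PBS/0.1% BSA/0.05% Tween 20. Timing was 30 min compound preincubation, then 60 min with beads at room temperature; top concentration 100 μM, 4-parameter IC50.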

[4] = Homo sapiens, MKN-1, assay 1, CTG 120 h, read-out: MKN1 (assay 1) IC50
[5] = Homo sapiens, MKN-1, assay 2, CTG 120 h, read-out: MKN1 (assay 2) IC50
[6] = Homo sapiens, MKN-1, assay 3, CTG 120 h, read-out: MKN1 (assay 3) IC50

Row | SMILES | IC50 [1] [µM] | IC50 [2, 6] [µM] | IC50 [3] [µM] | further results
1 | CO[C@H]1CCN(C)[C@@H]1[C@H](C)Oc1cc(-n2ccc(C(=O)N[C@H]3CCOC3)n2)nc(-c2onc3c2CCC[C@@]32CCCc3sc(N)c(C#N)c32)n1 [I-54] | – | 0.026 | – | –
2 | CO[C@H]1CCN(C)[C@@H]1[C@H](C)Oc1cc(-n2ccc(CC(=O)NC(C)C)n2)nc(-c2onc3c2CCC[C@@]32CCCc3sc(N)c(C#N)c32)n1 [I-48] | – | 0.017 | – | –
3 | C[C@H](Oc1cc([C@@H]2CCOC2)nc(-c2onc3c2CCC[C@@]32CCCc3sc(N)c(C#N)c32)n1)[C@@H]1CCCN1C [I-22] | 0.027 | 0.068 | 0.003 | –
4 | C[C@H](Oc1cc(N2CCN(C)C3(COC3)C2)nc(-c2onc3c2CCC[C@@]32CCCc3sc(N)c(C#N)c32)n1)[C@@H]1C[C@@H](F)CN1C [I-37] | 0.024 | – | 0.004 | –
5 | C[C@@H]1CN(c2cc(O[C@@H](C)[C@@H]3C[C@@H](F)CN3C)nc(-c3noc4c3CCC[C@@]43CCCc4sc(N)c(C#N)c43)n2)CC2(CC2)N1 [II-17] | 0.006 | – | 0.005 | –
6 | Cc1ccc(-c2cc(O[C@@H](C)[C@@H]3CCCN3C)nc(-c3onc4c3CCC[C@@]43CCCc4sc(N)c(C#N)c43)n2)cn1 [I-28] | – | 1.28 | 0.018 | –
7 | C[C@H](Oc1cc(Cl)nc(-c2onc3c2CCC[C@@]32CCCc3sc(N)c(C#N)c32)n1)[C@@H]1CCCN1C [I-1] | – | 1.73 | – | –
8 | C[C@H](Oc1cc(N2CC[C@H](N(C)C)C2)nc(-c2noc3c2CCC[C@@]32CCCc3sc(N)c(C#N)c32)n1)[C@@H]1C[C@@H](F)CN1C [II-15] | 0.009 | – | 0.011 | –
9 | C[C@H](Oc1nc(-c2onc3c2CCC[C@@]32CCCc3sc(N)c(C#N)c32)cc(N2CCNC3(CC3)C2)n1)[C@@H]1CCCN1C [I-2] | – | – | 0.042 | –
10 | C[C@H](Oc1cc(-c2ccn(C)n2)nc(-c2onc3c2CCC[C@@]32CCCc3sc(N)c(C#N)c32)n1)[C@@H]1CCCN1C [I-21] | 0.546 | – | – | IC50 ([2]; assay 3, CTG 120 h, read-out: MKN1 (assay 3) IC50): 0.149 µM
11 | C[C@H]1CN(C)CCCN1c1cc(N2CC[C@H](N(C)C)C2)nc(-c2noc3c2CCC[C@@]32CCCc3sc(N)c(C#N)c32)n1 [II-16] | 0.056 | – | – | –
12 | [2H]C([2H])([2H])N1C[C@H](F)C[C@H]1[C@H](C)Oc1cc(N2CCN(C)C3(CC3)C2)nc(-c2noc3c2CCC[C@@]32CCCc3sc(N)c(C#N)c32)n1 [II-209] | – | 0.67 | – | –
13 | [2H]C([2H])([2H])N1C[C@H](F)C[C@H]1[C@H](C)Oc1cc(N2CCNC3(CC3)C2)nc(-c2noc3c2CCC[C@@]32CCCc3sc(N)c(C#N)c32)n1 [II-208] | – | 0.245 | 0.004 | IC50 [2, 5]: 0.451 µM
14 | CO[C@@H]1C[C@@H]([C@H](C)Oc2cc(-c3ccn(C)n3)nc(-c3onc4c3CCC[C@@]43CCCc4sc(N)c(C#N)c43)n2)N(C)C1 [I-23] | 1.17 | – | – | –
15 | CO[C@H]1CCN(C)[C@@H]1[C@H](C)Oc1cc(-n2ccc(C(=O)N[C@@H]3CCOC3)n2)nc(-c2onc3c2CCC[C@@]32CCCc3sc(N)c(C#N)c32)n1 [I-53] | – | 0.048 | – | –
16 | C[C@H](Oc1cc(N2CC[C@H](N3CCCC3)C2)nc(-c2noc3c2CCC[C@@]32CCCc3sc(N)c(C#N)c32)n1)[C@@H]1CCCN1C [II-14] | 0.006 | – | 0.015 | –
17 | CO[C@H]1CCN(C)[C@@H]1[C@H](C)Oc1cc(N2CCNC3(CC3)C2)nc(-c2onc3c2CCC[C@@]32CCCc3sc(N)c(C#N)c32)n1 [I-49] | 0.001 | 0.152 | – | IC50 [2, 5]: 0.335 µM
18 | C[C@H](Oc1cc(-c2cnsc2)nc(-c2onc3c2CCC[C@@]32CCCc3sc(N)c(C#N)c32)n1)[C@@H]1CCCN1C [I-27] | – | 0.396 | – | –
19 | COCCNC(=O)c1ccn(-c2cc(O[C@@H](C)[C@@H]3[C@@H](OC)CCN3C)nc(-c3onc4c3CCC[C@@]43CCCc4sc(N)c(C#N)c43)n2)n1 [I-55] | – | 0.039 | – | –
20 | CO[C@@H]1C[C@@H]([C@H](C)Oc2cc(N3CCN(C)C4(CC4)C3)nc(-c3onc4c3CCC[C@@]43CCCc4sc(N)c(C#N)c43)n2)N(C)C1 [I-50] | 0.01 | 0.627 | – | IC50 [2, 5]: 0.785 µM
21 | C[C@H](Oc1cc(N2CCN(C)C3(CC3)C2)nc(-c2onc3c2CCC[C@@]32CCCc3sc(N)c(C#N)c32)n1)[C@@H]1CCCN1C [I-41] | 0.008 | – | 0.005 | –
22 | C[C@H](Oc1nc(-c2noc3c2CCC[C@@]32CCCc3sc(N)c(C#N)c32)cc(N2C[C@H](C)N[C@@H](C)C2)n1)[C@@H]1CCCN1C [II-46] | – | – | 0.053 | –
23 | C[C@H](Oc1cc(N2C[C@H](C)N(C)[C@@H](C)C2)nc(-c2onc3c2CCC[C@@]32CCCc3sc(N)c(C#N)c32)n1)[C@@H]1CCCN1C [I-43] | 0.143 | – | – | –
24 | C[C@H](Oc1cc(-c2ccn(C[C@@H](C)O)n2)nc(-c2onc3c2CCC[C@@]32CCCc3sc(N)c(C#N)c32)n1)[C@@H]1CCCN1C [I-30] | 0.811 | – | 0.003 | –
25 | C[C@H](Oc1cc(N2CCNC3(CCC3)C2)nc(-c2onc3c2CCC[C@@]32CCCc3sc(N)c(C#N)c32)n1)[C@@H]1CCCN1C [I-3] | 0.002 | – | 0.007 | –
26 | C[C@H](O)Cn1ccc(-c2cc(O[C@@H](C)[C@@H]3CCCN3C)nc(-c3onc4c3CCC[C@@]43CCCc4sc(N)c(C#N)c43)n2)n1 [I-31] | 0.588 | – | – | –

Further lines, with some results ahead:

Row | IC50 [1] [µM] | IC50 [2, 6] [µM] | IC50 [3] [µM] | SMILES | further results
27 | 0.105 | – | – | C[C@H](Oc1cc(N2CC[C@@H](N(C)C)C2)nc(-c2noc3c2CCC[C@@]32CCCc3sc(N)c(C#N)c32)n1)[C@@H]1CCCN1C [II-47] | –
28 | 0.057 | 0.024 | 0.003 | C[C@H](Oc1cc(-n2ccc(C(N)=O)n2)nc(-c2noc3c2CCC[C@@]32CCCc3sc(N)c(C#N)c32)n1)[C@@H]1CCCN1C [II-21] | IC50 [2, 4]: 0.02 µM; IC50 [2, 5]: 0.027 µM
29 | – | 0.172 | – | CCOC(=O)c1ccn(-c2cc(O[C@@H](C)[C@@H]3CCCN3C)nc(-c3noc4c3CCC[C@@]43CCCc4sc(N)c(C#N)c43)n2)n1 [II-23] | –
30 | – | 0.032 | – | C[C@H](Oc1cc(-n2ccc(C(=O)N(C)C3COC3)n2)nc(-c2onc3c2CCC[C@@]32CCCc3sc(N)c(C#N)c32)n1)[C@@H]1CCCN1C [I-60] | –
31 | 0.408 | 0.116 | – | C[C@H](Oc1cc(-c2ccn(C)n2)nc(-c2noc3c2CCC[C@@]32CCCc3sc(N)c(C#N)c32)n1)[C@@H]1C[C@@H](F)CN1C [II-27] | –
32 | 0.031 | – | 0.013 | CN[C@H]1CCN(c2cc(O[C@@H](C)[C@@H]3CCCN3C)nc(-c3noc4c3CCC[C@@]43CCCc4sc(N)c(C#N)c43)n2)C1 [II-35] | –
33 | 0.136 | 0.047 | – | C[C@H](Oc1cc(-n2ccc(C(=O)N3CCCC3)n2)nc(-c2noc3c2CCC[C@@]32CCCc3sc(N)c(C#N)c32)n1)[C@@H]1CCCN1C [II-19] | –
34 | 0.065 | – | 0.034 | C[C@H](Oc1cc(N2CCC(N(C)C)CC2)nc(-c2noc3c2CCC[C@@]32CCCc3sc(N)c(C#N)c32)n1)[C@@H]1CCCN1C [II-48] | –
35 | 0.005 | – | – | C[C@H](Oc1cc(N2CCNC(C)(C)C2)nc(-c2noc3c2CCC[C@@]32CCCc3sc(N)c(C#N)c32)n1)[C@@H]1CCCN1C [II-32] | –
36 | 0.005 | – | – | C[C@H](Oc1cc(N2CCNC3(CCC3)C2)nc(-c2noc3c2CCC[C@@]32CCCc3sc(N)c(C#N)c32)n1)[C@@H]1CCCN1C [II-40] | –
37 | – | 1.49 | – | C[C@H](Oc1cc(N2CCNCC2)nc(-c2noc3c2CCC[C@@]32CCCc3sc(N)c(C#N)c32)n1)[C@@H]1CCCN1C [II-45] | –
38 | 0.001 | 0.03 | – | C[C@H](Oc1cc(N2CCNC3(COC3)C2)nc(-c2noc3c2CCC[C@@]32CCCc3sc(N)c(C#N)c32)n1)[C@@H]1CCCN1C [II-31] | –
39 | – | 0.017 | – | COCCNC(=O)c1ccn(-c2cc(O[C@@H](C)[C@@H]3CCCN3C)nc(-c3onc4c3CCC[C@@]43CCCc4sc(N)c(C#N)c43)n2)n1 [I-58] | IC50 [2, 4]: 0.025 µM
40 | 0.078 | – | 0.004 | C[C@H](Oc1cc(N2C[C@@H](N(C)C)[C@@H](F)C2)nc(-c2noc3c2CCC[C@@]32CCCc3sc(N)c(C#N)c32)n1)[C@@H]1CCCN1C [II-11] | –
41 | – | 0.026 | – | C[C@H](NC(=O)c1ccn(-c2cc(O[C@@H](C)[C@@H]3CCCN3C)nc(-c3onc4c3CCC[C@@]43CCCc4sc(N)c(C#N)c43)n2)n1)c1ccccn1 [I-59] | –
42 | 0.004 | – | – | C[C@H](Oc1cc([C@H]2CCN(C)C2)nc(-c2noc3c2CCC[C@@]32CCCc3sc(N)c(C#N)c32)n1)[C@@H]1CCCN1C [II-38] | –
43 | – | – | 0.005 | C[C@H](Oc1cc(-c2ccn([C@H]3CCCOC3)n2)nc(-c2noc3c2CCC[C@@]32CCCc3sc(N)c(C#N)c32)n1)[C@@H]1CCCN1C [II-42] | –
44 | – | 0.019 | – | C[C@H](Oc1cc(-n2ccc(C(=O)N[C@H]3CCOC3)n2)nc(-c2onc3c2CCC[C@@]32CCCc3sc(N)c(C#N)c32)n1)[C@@H]1CCCN1C [I-57] | –
45 | 0.009 | – | 0.003 | C[C@H](Oc1cc(N2CCN(C)C3(COC3)C2)nc(-c2noc3c2CCC[C@@]32CCCc3sc(N)c(C#N)c32)n1)[C@@H]1CCCN1C [II-13] | –
46 | – | – | 0.003 | C[C@H](Oc1cc(-n2ccc(C(=O)NC3(C)COC3)n2)nc(-c2noc3c2CCC[C@@]32CCCc3sc(N)c(C#N)c32)n1)[C@@H]1CCCN1C [II-26] | –
47 | 0.011 | 1.27 | – | C[C@H](Oc1cc(N2C[C@@H](N(C)C)[C@@H](O)C2)nc(-c2noc3c2CCC[C@@]32CCCc3sc(N)c(C#N)c32)n1)[C@@H]1CCCN1C [II-10] | –
48 | – | – | 0.016 | C[C@H](Oc1cc(-n2ccc(C(=O)NC3COC3)n2)nc(-c2noc3c2CCC[C@@]32CCCc3sc(N)c(C#N)c32)n1)[C@@H]1CCCN1C [II-25] | –
